{"source": "patent US20090311685A1", "about": "“NMU-GHSR1b/NTSR1 oncogenic signaling pathway as a therapeutic target for lung cancer” (Oncotherapy Science, Inc, priority 2006, published 2009)", "key": {"[1]": {"test_system": "LC319 cells", "experiment": "Measurement of cAMP levels (cAMP EIA)", "format": "cell-based, human", "conditions": "final concentrations of 3 to 100 μM", "experimental": "Trypsinized LC319, REF-LC-AI, NCI-H358 and SK-MED-1 cells were seeded onto a 96-well microtiter plate (5.0×10^4 cells) and cultured in appropriate medium supplemented with 10% FCS for 24 hours, and then the medium was changed to serum free/1 mM IBMX (isobutylmethylxanthine) 20 min prior to the assay. Next, the cells were incubated with individual concentrations of peptides (NMU-25, GHRL, or NTS) for 20 min and cAMP levels of the cells were measured using cAMP EIA System (GE Healthcare Bio-sciences)."}, "[2]": {"test_system": "LC319 cells", "experiment": "Intracellular Ca^2+ mobilization assay (FLIPR)", "format": "cell-based, human", "experimental": "Trypsinized LC319 cells were seeded onto poly-D-lysine coated 384-well black-wall, clear-bottom microtiter plate (1.0×10^4 cells/ml) 24 hours prior to the assay. The cells were loaded for 1 hour with 4 μM Fluo-3-AM fluorescent indicator dye in assay buffer (Hank's balanced salt solution, 20 mM HEPES, 2.5 mM probenecid), washed three times with assay buffer, and then incubated for 10 min at room temperature before detection on fluorometric imaging plate reader (FLIPR; Molecular Devices). Fluorescence data of Ca^2+ release were collected in real-time at 1 sec intervals for the first 65 sec and at 3 sec intervals for additional 300 sec after individual concentrations of peptide (NMU-25, […], or NTS) treatment. Maximum change in fluorescence over baseline was measured to determine the response of the cells to the individual peptide stimulations."}, "[3]": {"test_system": "NSCLC cells", "experiment": "Competition of NMU-induced cAMP production", "format": "cell-based"}, "[4]": {"biological_target": "T1, NMU1R-expressing cells (Homo sapiens, UniProt Q9HB89)", "T1 construct": "host or cells: NMU1R-expressing cells", "T1 sequence (Q9HB89 1-426)": "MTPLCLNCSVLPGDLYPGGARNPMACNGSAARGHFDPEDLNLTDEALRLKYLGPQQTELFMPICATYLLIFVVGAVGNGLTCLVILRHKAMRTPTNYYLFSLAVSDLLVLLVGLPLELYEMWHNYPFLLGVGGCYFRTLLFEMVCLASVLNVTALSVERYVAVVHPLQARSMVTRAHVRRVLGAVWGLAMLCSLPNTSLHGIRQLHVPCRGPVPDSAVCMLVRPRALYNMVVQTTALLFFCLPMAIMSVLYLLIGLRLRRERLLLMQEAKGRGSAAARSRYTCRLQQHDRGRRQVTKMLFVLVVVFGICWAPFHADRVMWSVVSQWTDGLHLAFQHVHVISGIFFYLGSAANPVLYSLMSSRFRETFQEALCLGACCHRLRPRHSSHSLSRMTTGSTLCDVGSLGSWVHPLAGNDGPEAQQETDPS", "conditions": "cited from earlier work"}}}
{"substance": "ghrelin (GSSFLSPEHQRVQQRKESKKPPAKLQPR) [GHRL, 28-amino-acid peptide, known ligand of GHSR]", "values": [{"measurement": "cAMP production", "setting": "[1]", "value": "did not enhance"}, {"measurement": "intracellular Ca^2+ flux / mobilization", "setting": "[2]", "value": "not the treatment with GHRL caused the mobilization response"}, {"measurement": "NMU-induced cAMP production", "setting": "[3]", "value": "competitively inhibited"}, {"measurement": "displacement of 125I-labeled rat NMU-binding", "setting": "[4]", "value": "did not displace"}]}
